From ChEMBL document CHEMBL4715696, “In vitro synergistic anticancer activity of the combination of T-type calcium channel blocker and chemotherapeutic agent in A549 cells” (Bioorg Med Chem Lett, 2016)
pIC50: −log10 of the molar value.

Tests used:
[1] = target: Voltage-dependent T-type calcium channel subunit alpha-1G (Homo sapiens, UniProt O43497); assay: Inhibition of T type calcium channel Cav3.1 (unknown origin) expressed in HEK293T cells by patch clamp method relative to control; type: cell-based
Chain of Voltage-dependent T-type calcium channel subunit alpha-1G (O43497 whole entry): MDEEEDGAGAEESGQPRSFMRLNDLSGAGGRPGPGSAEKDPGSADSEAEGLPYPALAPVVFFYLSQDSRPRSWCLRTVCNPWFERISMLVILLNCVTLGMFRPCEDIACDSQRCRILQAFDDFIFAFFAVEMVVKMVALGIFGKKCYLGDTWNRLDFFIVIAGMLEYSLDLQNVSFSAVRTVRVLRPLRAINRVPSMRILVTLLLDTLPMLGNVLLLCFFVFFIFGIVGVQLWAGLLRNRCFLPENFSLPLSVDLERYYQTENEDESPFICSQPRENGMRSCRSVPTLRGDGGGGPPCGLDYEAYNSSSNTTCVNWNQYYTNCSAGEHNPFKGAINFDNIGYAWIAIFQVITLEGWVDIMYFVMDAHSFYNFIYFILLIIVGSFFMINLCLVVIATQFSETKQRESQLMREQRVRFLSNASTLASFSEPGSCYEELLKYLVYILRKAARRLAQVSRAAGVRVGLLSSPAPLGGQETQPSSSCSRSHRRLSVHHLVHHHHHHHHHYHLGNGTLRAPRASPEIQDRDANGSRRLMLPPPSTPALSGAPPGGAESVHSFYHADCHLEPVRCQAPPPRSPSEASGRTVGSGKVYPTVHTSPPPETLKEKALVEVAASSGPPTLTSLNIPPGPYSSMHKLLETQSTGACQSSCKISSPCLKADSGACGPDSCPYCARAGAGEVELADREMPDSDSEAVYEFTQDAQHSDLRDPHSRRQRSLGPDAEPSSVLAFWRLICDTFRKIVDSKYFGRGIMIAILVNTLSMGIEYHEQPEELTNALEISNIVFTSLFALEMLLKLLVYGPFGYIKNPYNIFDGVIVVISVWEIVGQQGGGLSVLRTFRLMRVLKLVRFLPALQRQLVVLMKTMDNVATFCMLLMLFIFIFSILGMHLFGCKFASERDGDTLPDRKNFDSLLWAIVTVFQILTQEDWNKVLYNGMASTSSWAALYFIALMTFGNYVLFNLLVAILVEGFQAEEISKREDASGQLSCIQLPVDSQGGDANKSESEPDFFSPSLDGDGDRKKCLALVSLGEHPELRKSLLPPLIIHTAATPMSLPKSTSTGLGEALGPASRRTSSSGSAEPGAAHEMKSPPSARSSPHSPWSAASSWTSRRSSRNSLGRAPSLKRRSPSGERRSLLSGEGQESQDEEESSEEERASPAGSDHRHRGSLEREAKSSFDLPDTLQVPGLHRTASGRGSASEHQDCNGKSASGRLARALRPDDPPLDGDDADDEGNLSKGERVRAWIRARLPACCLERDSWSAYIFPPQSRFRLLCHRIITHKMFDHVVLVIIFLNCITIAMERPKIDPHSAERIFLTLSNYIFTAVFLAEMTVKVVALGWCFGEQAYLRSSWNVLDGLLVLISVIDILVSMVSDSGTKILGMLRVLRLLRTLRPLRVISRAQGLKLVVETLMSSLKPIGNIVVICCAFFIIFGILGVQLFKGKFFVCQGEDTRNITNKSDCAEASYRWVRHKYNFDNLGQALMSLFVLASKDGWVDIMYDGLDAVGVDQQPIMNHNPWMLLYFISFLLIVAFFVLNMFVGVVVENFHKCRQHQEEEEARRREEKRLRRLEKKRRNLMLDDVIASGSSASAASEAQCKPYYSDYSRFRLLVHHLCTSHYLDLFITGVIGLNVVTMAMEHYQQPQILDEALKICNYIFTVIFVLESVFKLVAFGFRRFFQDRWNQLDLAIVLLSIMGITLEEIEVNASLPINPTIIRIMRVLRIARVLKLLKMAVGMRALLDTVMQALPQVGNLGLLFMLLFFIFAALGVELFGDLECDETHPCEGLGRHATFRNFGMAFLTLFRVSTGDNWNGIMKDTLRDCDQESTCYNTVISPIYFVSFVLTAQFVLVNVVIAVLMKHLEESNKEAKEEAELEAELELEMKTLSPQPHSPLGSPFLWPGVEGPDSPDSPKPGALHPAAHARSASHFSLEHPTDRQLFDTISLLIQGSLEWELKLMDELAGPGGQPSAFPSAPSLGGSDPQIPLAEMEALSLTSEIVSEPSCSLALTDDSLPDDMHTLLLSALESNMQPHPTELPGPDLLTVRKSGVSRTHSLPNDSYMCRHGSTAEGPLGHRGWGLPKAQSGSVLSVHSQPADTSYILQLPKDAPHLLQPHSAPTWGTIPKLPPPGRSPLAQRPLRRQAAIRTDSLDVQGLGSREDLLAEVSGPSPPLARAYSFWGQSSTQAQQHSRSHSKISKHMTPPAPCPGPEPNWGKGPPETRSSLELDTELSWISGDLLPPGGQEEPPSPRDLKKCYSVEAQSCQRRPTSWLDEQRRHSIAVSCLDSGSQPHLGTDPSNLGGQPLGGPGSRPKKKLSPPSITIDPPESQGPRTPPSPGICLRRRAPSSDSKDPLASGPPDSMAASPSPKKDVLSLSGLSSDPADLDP

A549 [2] = assay: Induction of cell cycle arrest in human A549 cells assessed as accumulation at sub G1 phase at 5 uM after 24 hrs by flow cytometric analysis (reference value: 7.8%); type: functional
A549 [3] = assay: Induction of cell cycle arrest in human A549 cells assessed as accumulation at G2/M phase at 5 uM after 24 hrs by flow cytometric analysis (reference value: 21.6%); type: functional
A549 [4] = assay: Induction of cell cycle arrest in human A549 cells assessed as accumulation at G1 phase at 5 uM after 24 hrs by flow cytometric analysis (reference value: 53.1%); type: functional
A549 [5] = assay: Induction of cell cycle arrest in human A549 cells assessed as accumulation at S phase at 5 uM after 24 hrs by flow cytometric analysis (reference value: 17.6%); type: functional
A549 [6] = assay: Cytotoxicity against human A549 cells assessed as reduction in cell viability by MTT assay; type: functional, cell-based
A549 [7] = assay: Induction of cell cycle arrest in human A549 cells assessed as accumulation at sub G1 phase at 5 uM after 48 hrs by flow cytometric analysis (reference value: 1.9 to 4.9%); type: functional
A549 [8] = assay: Induction of cell cycle arrest in human A549 cells assessed as accumulation at G1 phase at 5 uM after 48 hrs by flow cytometric analysis (reference value: 57.8 to 65.5%); type: functional
A549 [9] = assay: Induction of cell cycle arrest in human A549 cells assessed as accumulation at G2/M phase at 5 uM after 48 hrs by flow cytometric analysis (reference value: 22.1 to 25.4 %); type: functional
A549 [10] = assay: Induction of cell cycle arrest in human A549 cells assessed as accumulation at S phase at 5 uM after 48 hrs by flow cytometric analysis (reference value: 10.4 to 12%); type: functional
[11] = Protein binding in rat plasma at 10 uM after 4 hrs; type: ADME, cell-free; details: read-out: PPB (converted)
[12] = Protein binding in human plasma at 10 uM after 4 hrs; type: ADME, cell-free; details: read-out: PPB (converted)
[13] = Metabolic stability in rat plasma assessed as parent compound remaining at 10 uM measured after 2 hrs; type: ADME, cell-free; details: read-out: Stabilty
[14] = Metabolic stability in human plasma assessed as parent compound remaining at 10 uM measured after 2 hrs; type: ADME, cell-free; details: read-out: Stabilty
A549 [15] = assay: Induction of cell cycle arrest in human A549 cells assessed as accumulation at S phase at 10 uM after 48 hrs by flow cytometric analysis (reference value: 12%); type: functional
A549 [16] = assay: Induction of cell cycle arrest in human A549 cells assessed as accumulation at sub G1 phase at 10 uM after 48 hrs by flow cytometric analysis (reference value: 4.9%); type: functional
A549 [17] = assay: Induction of cell cycle arrest in human A549 cells assessed as accumulation at G1 phase at 10 uM after 48 hrs by flow cytometric analysis (reference value: 57.8%); type: functional
A549 [18] = assay: Induction of cell cycle arrest in human A549 cells assessed as accumulation at G1 phase at 10 uM after 24 hrs by flow cytometric analysis (reference value: 53.1%); type: functional
A549 [19] = assay: Induction of cell cycle arrest in human A549 cells assessed as accumulation at S phase at 10 uM after 24 hrs by flow cytometric analysis (reference value: 17.6%); type: functional
A549 [20] = assay: Induction of cell cycle arrest in human A549 cells assessed as accumulation at G2/M phase at 10 uM after 24 hrs by flow cytometric analysis (reference value: 21.6%); type: functional
A549 [21] = assay: Induction of cell cycle arrest in human A549 cells assessed as accumulation at sub G1 phase at 10 uM after 24 hrs by flow cytometric analysis (reference value: 7.8%); type: functional
A549 [22] = assay: Induction of cell cycle arrest in human A549 cells assessed as accumulation at G2/M phase at 10 uM after 48 hrs by flow cytometric analysis (reference value: 25.4%); type: functional

SMILES: CN(C)CCCCCN(C)C1=Nc2ccccc2C(CC(=O)NCc2ccccc2)N1c1ccc(-c2ccccc2)cc1.Cl.Cl (stereo not drawn)
- pIC50 [1]: 6.29
- Activity (A549 [2]): 55.3%
- Activity (A549 [3]): 2.2%
- Activity (A549 [4]): 33.6%
- Activity (A549 [5]): 8.8%
- pIC50 (A549 [6]): 5.33
- Activity (A549 [7]): 98.1%
- Activity (A549 [8]): 1.2%
- Activity (A549 [9]): 0.1%
- Activity (A549 [10]): 0.6%

SMILES: CC(=O)CC(c1ccccc1)c1c(O)c2ccccc2oc1=O (stereo not drawn) [WARFARIN]
- fraction unbound at 4 h, 10 µM [11]: 0.017
- fraction unbound at 4 h, 10 µM [12]: 0.022

SMILES: CCN(CC)CCOC(=O)c1ccc(N)cc1 [PROCAINE]
- remaining at 2 h, 10 µM [13]: > 50%
- remaining at 2 h, 10 µM [14]: < 5%

SMILES: COCC(=O)O[C@]1(CCN(C)CCCc2nc3ccccc3[nH]2)CCc2cc(F)ccc2[C@@H]1C(C)C [MIBEFRADIL]
- Activity (A549 [15]): 12%
- Activity (A549 [16]): 10%
- Activity (A549 [17]): 66.8%
- pIC50 (A549 [6]): 4.50
- Activity (A549 [18]): 66.1%
- Activity (A549 [19]): 10.9%
- Activity (A549 [20]): 13.4%
- Activity (A549 [21]): 9.6%
- Activity (A549 [22]): 11.2%
